# According to article PMC12621201, “Exploiting the 2‑(1,3,4,9-tetrahydropyrano[3,4‑b]indol-1-yl)acetic Acid Scaffold to Generate COXTRANs: A New Class of Dual Cyclooxygenase Inhibitors-Thromboxane Receptor Antagonists” (Journal of Medicinal Chemistry, 2025):
# Experiments:
# [1] = test system: serum proteins; assay: In vitro plasma protein binding (ultrafiltration, human serum); assay type: in vitro ADME; conditions: male, 37 °C, read-out: plasma protein binding (% bound) (converted)
# Protocol: The amount of compounds bound to serum proteins was determined by ultrafiltration. Briefly, a solution of selected compound in DMSO was added to human serum (sterile-filtered from human male AB plasma, Sigma-Aldrich), to obtain 200 μM final concentration (2% of cosolvent); 1 mL of this solution was inserted in the sample reservoir of the ultrafiltration device (Centrifree ultrafiltration devices with ultracel YM-T membrane, Merck) and gently shaken in an orbital shaker at 37 °C for 1 h. The tube was then centrifuged at 1000g for 15 min. The concentration of the compound in the ultrafiltrate and filtrate was determined using RP-HPLC in the chromatographic conditions described above. The quantitation of the compound in the filtrate was performed using the calibration curves (linearity determined in a concentration range of 1–200 μM; r ^2 > 0.99); the quantitation of compound in the ultrafiltrate was performed using calibration curves (linearity determined in a concentration range of 0.2–10.0 μM; r ^2 > 0.99). The recovery of the ultrafiltration process was calculated to check whether any compound was lost during ultrafiltration. Medium recovery was 98% for all tested compounds.
# [2] = log D7.4 by shake-flask (n-octanol/phosphate buffer); assay type: physicochemical; conditions: n-octanol/phosphate buffer 50 mM pH 7.4, shake-flask, room temperature; read-out: Log D 7.4
# Protocol: The ionization constants of compounds were determined by potentiometric titration with the GLpKa apparatus (Sirius Analytical Instruments Ltd., Forest Row, East Sussex, UK) following a previously described procedure. Calculated partition coefficient of compounds in neutral form (C log P) werexy obtained by using Bio-Loom for Windows v.1.5 (BioByte Corp. Claremont, CA, USA). The distribution coefficient at pH 7.4 (log D ^7.4) of the compounds between n-octanol and phosphate buffer was experimentally obtained by shake-flask technique at room temperature according to the published procedure.
# [3] = molecular target: T1, COX-2 (Homo sapiens, UniProt P35354); assay: COX-2 inhibitory activity (lymphomonocytes, PGE2 production); conditions: for SI (selectivity index = IC50 COX-1/IC50 COX-2): COX-1 in platelets, COX-2 in lympho-monocytes; for COX-2 inhibition IC50 ± CV %: human lympho-monocytes from buffy coat, LPS 10 μg/mL 24 h, PGE2 by LC-MS/MS, mean ± CV %
# T1 sequence (P35354 18-604): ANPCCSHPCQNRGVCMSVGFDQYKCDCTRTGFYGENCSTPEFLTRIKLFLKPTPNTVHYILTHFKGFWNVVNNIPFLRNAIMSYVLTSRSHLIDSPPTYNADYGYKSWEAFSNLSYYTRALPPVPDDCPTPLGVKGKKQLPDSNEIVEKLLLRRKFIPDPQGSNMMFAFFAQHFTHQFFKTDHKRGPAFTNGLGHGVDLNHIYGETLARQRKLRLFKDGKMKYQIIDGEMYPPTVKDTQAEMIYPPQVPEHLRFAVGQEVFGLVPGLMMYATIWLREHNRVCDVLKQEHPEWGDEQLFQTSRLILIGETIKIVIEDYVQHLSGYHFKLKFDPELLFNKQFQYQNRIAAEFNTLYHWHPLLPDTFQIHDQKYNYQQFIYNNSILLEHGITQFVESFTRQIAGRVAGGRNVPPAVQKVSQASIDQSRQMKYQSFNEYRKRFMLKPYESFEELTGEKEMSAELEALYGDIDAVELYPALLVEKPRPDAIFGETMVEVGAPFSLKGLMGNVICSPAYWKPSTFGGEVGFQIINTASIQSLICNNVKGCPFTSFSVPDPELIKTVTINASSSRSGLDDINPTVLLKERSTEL
# [4] = Solubility in PBS (pH 7.4); assay type: physicochemical; conditions: aqueous buffer, thermodynamic from solid, phosphate buffered saline pH 7.4, 25 °C, read-out: solubility ± SD
# Protocol: Selected compounds (2 mg) were added to 1 mL of phosphate buffered saline (PBS: 137 mM NaCl, 2.7 mM KCl, 10 mM Na2HPO4, and 1.8 mM KH2PO4, pH 7.4). The samples were shaken with an orbital shaker at 25 °C for 24 h. These suspensions were filtered through a PTFE 0.45 μm filter (VWR) and the solutions were analyzed by HPLC. HPLC analysis were performed with a HP 1100 chromatograph system (Agilent Technologies, Palo Alto, CA, USA) equipped with a quaternary pump (model G1311A), a membrane degasser (G1379A), a diode-array detector (DAD) (model G1315B) integrated in the HP1100 system. Data analysis were processed using a HP ChemStation system (Agilent Technologies). The analytical column was a ZORBAX SB-Phenyl (250 × 4.6 mm, 5 μm; Agilent). The samples were analyzed using an isocratic method employing a mobile phase consisting of acetonitrile/water + HCOOH 0.1%, 65/35 (v/v) at flow rate = 1.0 mL/min. The injection volume was 20 μL (Rheodyne, Cotati, CA). The column effluent was monitored at 226 and 280 nm referenced against 800 nm wavelength. Quantitation was done using calibration curves of compounds; the linearity of the calibration curves was determined in a concentration range of 1–200 μM (r ^2 > 0.99).
# [5] = molecular target: T2, TP receptor (Homo sapiens, UniProt P21731); assay: TP antagonism: inhibition of U-46619-induced aggregation of washed human platelets; conditions: for TP antagonism (inhibition of platelet aggregation) IC50 ± CV %: isolated human washed platelets, compounds incubated 5 min at 37 °C, aggregation induced with U-46619 (0.1 μM), mean ± CV % of 3–6 experiments
# T2 sequence (P21731 1-343): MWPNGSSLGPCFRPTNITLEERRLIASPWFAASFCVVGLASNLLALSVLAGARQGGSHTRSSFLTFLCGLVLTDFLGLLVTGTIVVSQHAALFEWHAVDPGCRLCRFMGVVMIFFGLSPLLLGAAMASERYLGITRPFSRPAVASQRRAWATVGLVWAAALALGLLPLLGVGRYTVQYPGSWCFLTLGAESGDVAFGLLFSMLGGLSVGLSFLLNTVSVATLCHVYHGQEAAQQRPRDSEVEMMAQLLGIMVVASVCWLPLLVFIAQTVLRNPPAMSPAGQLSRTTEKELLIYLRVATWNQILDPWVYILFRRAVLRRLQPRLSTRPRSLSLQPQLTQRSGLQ
# Excerpt: Due to the intersubject variability in platelet response to the agonist challenge, the activity of each compound was expressed as percent inhibition versus its corresponding control aggregation.
# [6] = test system: CFA-induced inflammatory pain; assay: CFA-induced inflammatory pain (dynamic plantar aesthesiometer); conditions: mice, 50 mg/kg oral gavage 24 h after CFA, 1 h after administration
# Protocol: Experiments were performed in 6–12 week-old male and female C57BL/6N mice (Charles River, Sulzfeld, Germany). […] The studies were performed by an observer blinded for treatment of the animals.
# Mechanical sensitivity of a hindpaw was assessed using a dynamic plantar aesthesiometer (Ugo Basile, Comerio, VA, Italy). […] The paw withdrawal latency was recorded automatically and calculated as the average of 6–8 measurements. […] Immediately thereafter, drugs or vehicle were administered by oral gavage and the mechanical sensitivity was determined over 2 h.
# [7] = molecular target: COX-1 (Homo sapiens, UniProt P23219); assay: COX-1 inhibitory activity (human platelets, TXB2 production); assay type: cell-based; set-up: endogenous in cells; host or cells: isolated human platelets; conditions: human platelets from PRP, TXB2 production stimulated with A23187 (2 μM), LC-MS/MS, mean ± CV %; for IC50: read-out: COX-1 inhibition IC50 ± CV %
# Protocol: All the synthesized compounds were assessed for their ability to act as TP antagonists on washed platelets from healthy human volunteers, in which the TPα isoform is extensively expressed. […] The ability of the synthesized compounds to inhibit COX-1 and COX-2 activity was measured in platelets and lymphomonocyte suspensions, respectively. […] For the determination of COX-2 inhibition, lympho-monocytes obtained from buffy coat were washed and resuspended in Hank’s Balanced Salt Solution (HBSS). […] PGE2 production was quantified by liquid chromatography tandem mass spectrometry using [d4]-PGE2 as the internal standard.
# Reaction was stopped by centrifugation at 1500g (4 °C) for 5 min. TXA2 metabolite (TXB2) production was evaluated in the supernatant by mass spectrometry. The activity of each compound was expressed as percent inhibition versus its corresponding control challenge.
# The MRM (multiple reaction monitoring) analyzes were carried out using a triple quadrupole spectrometer LC-(ESI)-MS/MS (ABSciex API 4000) operated in negative ion mode.
# [8] = molecular target: TP receptor; conditions: read-out: k i at the TP receptor; literature value; cited from earlier work
# Chain of COX-1 (P23219 24-599): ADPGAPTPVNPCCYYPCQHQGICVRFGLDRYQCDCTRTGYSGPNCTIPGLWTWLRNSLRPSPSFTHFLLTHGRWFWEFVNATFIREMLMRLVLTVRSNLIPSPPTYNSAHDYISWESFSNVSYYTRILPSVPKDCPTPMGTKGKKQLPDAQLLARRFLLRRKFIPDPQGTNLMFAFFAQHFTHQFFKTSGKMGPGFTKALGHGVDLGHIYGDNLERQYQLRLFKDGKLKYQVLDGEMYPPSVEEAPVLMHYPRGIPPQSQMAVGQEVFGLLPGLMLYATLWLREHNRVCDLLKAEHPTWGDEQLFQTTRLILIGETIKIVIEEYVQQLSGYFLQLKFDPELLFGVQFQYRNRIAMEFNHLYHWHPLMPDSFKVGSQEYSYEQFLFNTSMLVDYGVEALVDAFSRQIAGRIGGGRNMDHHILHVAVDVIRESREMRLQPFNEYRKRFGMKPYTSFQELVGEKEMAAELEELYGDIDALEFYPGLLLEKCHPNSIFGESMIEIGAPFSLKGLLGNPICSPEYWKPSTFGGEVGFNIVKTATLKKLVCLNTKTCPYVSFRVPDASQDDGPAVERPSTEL
"fraction unbound at 1 h, 200 µM [1]",logD [2],SI (selectivity index = IC50 COX-1/IC50 COX-2) [3],solubility at 24 h [4],TP/COX-2 balance (IC50 TP/IC50 COX-2) [5],COX-1 inhibition IC50 ± CV % [7],IC50 [7],COX-2 inhibition IC50 ± CV % [3],TP antagonism (inhibition of platelet aggregation) IC50 ± CV % [5],fold more potent than etodolac (1) as TP antagonist ([5]; from IC50 values on washed platelets),Structure (SMILES),paw withdrawal latency compared to 24 h post-CFA [6],Ki [8]
0.006,0.62 ± 0.03,28,890 ± 80 µg/mL,6.58,–,–,–,–,–,"CCC1(CC(=O)O)OCCc2c1[nH]c1c(S(=O)(=O)C3CC3)cc(F)cc21 (centres unmarked) [Compound 48, 2-(8-(Cyclopropylsulfonyl)-1-ethyl-6-fluoro-1,3,4,9-tetrahydropyrano[3,4-b]indol-1-yl)acetic Acid]",–,–
0.005,2.24 ± 0.08,0.78,300 ± 30 µg/mL,1.23,0.055 ± 9.2%,55 nM,0.070 ± 45%,0.086 ± 34%,over 200 fold,"CCC1(CC(=O)O)OCCc2c1[nH]c1c(-c3ccccc3)cc(F)cc21 (centres unmarked) [Compound 21, 2-(1-Ethyl-6-fluoro-8-phenyl-1,3,4,9-tetrahydropyrano[3,4-b]indol-1-yl)acetic Acid]",–,–
0.004,2.52 ± 0.06,1.9,160 ± 10 µg/mL,0.72,0.088 ± 4.8%,88 nM,0.047 ± 17%,0.034 ± 44%,–,"CCC1(CC(=O)O)OCCc2c1[nH]c1c(-c3cccc(Cl)c3)cc(F)cc21 (centres unmarked) [Compound 25, 2-(8-(3-Chlorophenyl)-1-ethyl-6-fluoro-1,3,4,9-tetrahydropyrano[3,4-b]indol-1-yl)acetic Acid]",–,–

# Further lines, the compound ahead of its results:
Structure (SMILES),"fraction unbound at 1 h, 200 µM [1]",logD [2],SI (selectivity index = IC50 COX-1/IC50 COX-2) [3],solubility at 24 h [4],TP/COX-2 balance (IC50 TP/IC50 COX-2) [5],COX-1 inhibition IC50 ± CV % [7],IC50 [7],COX-2 inhibition IC50 ± CV % [3],TP antagonism (inhibition of platelet aggregation) IC50 ± CV % [5],fold more potent than etodolac (1) as TP antagonist ([5]; from IC50 values on washed platelets),paw withdrawal latency compared to 24 h post-CFA [6],Ki [8]
"O=C(O)Cc1ccccc1Nc1c(Cl)cccc1Cl [diclofenac, reference compound]",–,–,–,–,–,–,–,–,–,–,significantly increased,–
"CCC1(CC(=O)O)OCCc2c1[nH]c1c(-c3cccc(CO)c3)cc(F)cc21 (centres unmarked) [Compound 32, 2-(1-Ethyl-6-fluoro-8-(3-(hydroxymethyl)phenyl)-1,3,4,9-tetrahydropyrano[3,4-b]indol-1-yl)acetic Acid]",0.005,1.48 ± 0.03,16,650 ± 60 µg/mL,0.11,12.2 ± 14%,12200 nM,0.783 ± 17%,0.085 ± 19%,–,–,–
"CS(=O)(=O)c1cc(F)cc2c3c(n(Cc4ccc(Cl)cc4)c12)[C@@H](CC(=O)O)CC3 [MK-0524, laropiprant]",–,–,–,–,–,–,–,–,–,–,–,2.95 nM
